The values that follow are results of earlier work, collected in US20040028754A1, “Use of phyllanthus component for the treatment or prophylaxis of infections triggered by flaviviridae” (priority 2000, published 2004).

The subject of data set [1] is Ca^2+- and phospholipid-dependent protein kinase C (PKC) of the rat brain.
For data set [2], the target named is T1, cAMP-dependent protein kinase of the rat liver (Rattus norvegicus, UniProt P27791).
T1 construct: the cAMP-dependent protein kinase of the rat liver; from tissue; host or cells: rat liver

In data set [3] the test system is Ca^2+-dependent protein kinase of the wheat embryo.
The next data set relates to Bacillus subtilis. To be noted: 0.1 ml; extract 50 mg/ml, streptomycin 10 mg/ml.
The subject of the next data set is Staphylococcus aureus. To be noted: 0.1 ml; extract 50 mg/ml, streptomycin 10 mg/ml.

As for `O=C1OC2C3OC(=O)C4=CC(=O)C5(O)Oc6c(O)c(O)cc(c6C4C5(O)O)C(=O)OC2C(OC(=O)c2cc(O)c(O)c(O)c2)OC3COC(=O)c2cc(O)c(O)c3c2C2C1=CC(=O)C(O)(O3)C2(O)O` (centres unmarked) [amariin], the “inhibition of protein kinase” value in data set [1], in data set [2] and in data set [3] was “most effective” throughout.
For `[H]/N=C(/N)N[C@H]1[C@H](O)[C@@H](O)[C@H](O[C@@H]2O[C@@H](C)[C@](O)(C=O)[C@H]2O[C@@H]2O[C@@H](CO)[C@H](O)[C@@H](O)[C@@H]2NC)[C@@H](N/C(N)=N\[H])[C@@H]1O` [streptomycin], the inhibition zone with Bacillus subtilis and in the data set on Staphylococcus aureus was 35 mm each time.
geraiin: the “inhibition of protein kinase” value in data set [1], in data set [2] and in data set [3] was “most effective” throughout.
